Data set [1] in a line: Solubility test in deionized water. Format: physicochemical. How it is done:
In order to check the solubility of the compound according to the present disclosure, each of MMB-11903B according to the present disclosure prepared in the Preparation Example and ATRA was added to 1 mL of deionized water at a concentration of 100 mM (Compound MMB-11903B according to the present disclosure: 72.8 mg/mL; ATRA: 30.0 mg/mL) and each mixed solution was stirred for dissolution by lightly vortexing the same. After each of the prepared solution of the compound MMB-11903B according to the present disclosure and the prepared ATRA solution was left at room temperature for 20 minutes, an image thereof was taken again to observe a dissolution state of each compound in each solution (FIG. 1).
Thus, the compound MMB-11903B according to the present disclosure may be easily dissolved in the solvent such as water, so that it has high solubility, and further has solubility stability, so that it may maintain a dissolved state even after being left for a long time.

The subject of data set [2] is human neuroblastoma SH-SY5Y. Nature of the data set: Cell viability test using CCK-8. Format: cell-based. As to conditions: CCK-8, 0-50 μM, 24, 48, 72 hours. How it is done: Cell viability analysis of a nerve cell line using CCK-8 was performed on human neuroblastoma SH-SY5Y as an undifferentiated nerve cell line. For reference, the analysis using the CCK-8 (Cell counting kit-8) was based on a highly water-soluble tetrazolium salt-SST-8. The analysis is based on the fact that when [2-(2-methoxy-4-nitrophenyl)-3-(4-nitrophenyl)(2,4-disulfophenyl)-2H-tetrazolium, monosodium salt] is reduced under presence of an electron mediator, a water-soluble formazan orange dye is produced, and an amount of the formazan dye produced by dehydrogenase in cells is directly proportional to the number of living cells. The specific experimental method is as follows.
The next day, the growth medium was removed therefrom. […] At 2 hours before a harvest time, 10 μL of CCK-8 solution was added to each well and the cells were incubated for an additional 2 hours. […] Cell viability (%)=B/A×100(%) [Cell viability calculation equation]
(In the equation, A denotes an absorbance value measured in a control well, and B denotes an absorbance value measured in the well containing the drug).

Data set [3] has as its system SH-SY5Y. As to conditions: human, 24 h, 200 μM. From the text:
(§1) The calculated values were graphed using the GraphPad Prism application.

The test system of data set [4] is SH-SY5Y. Nature of the data set: Neurite elongation and new neuron generation and growth using immunofluorescence staining (color histogram). Format: cell-based, human. The following applies: 10 μM, day 3. How it is done:
For cell viability analysis, stabilized cells were planted in a 60 mm dish at a density of ×10^5 cells/dish. […] The next day, the growth medium was removed therefrom. […] Then, the cells were incubated therein for 1, 3, and 5 days, and under at 37° C. and 5% C02 condition. The cells were harvested and were washed with DPBS, and fixed with 10% Neutral Buffered Formalin for 10 minutes, washed 3 times with Tris-buffered saline (TBS), and then a reaction thereof was carried out for 15 minutes in 0.3% Triton X-100 (in TBS). The cells were washed three times in TBS, and a solution of 5% Bovine serum albumin (BSA) and Normal Goat Serum (NGS) in TBS was added thereto and a reaction thereof was carried out at 4° C. for 24 hours. Differentiation into the nerve cells and formation of the neurite were identified using j-III tubulin primary antibody as a neuron specific marker and doublecortin primary antibody as a newborn immature neuron marker. […] The cells were washed three times with TBS, and were mounted (VECTASHIELD® Mounting Medium with DAPI; Vector Laboratories, Burlingame, CA, USA), and images were acquired with a fluorescence microscope. […]
The color histogram was measured using the ImageJ program.

Data set [5] relates to SH-SY5Y. Nature of the data set: Cell proliferation effect using immunofluorescence staining (Ki-67 positive cells). Format: cell-based, human. The following applies: 1st day of exposure. How it is done: The number of cells which were positive relative to Ki-67 as a marker for neuronal proliferation was analyzed. The number of the positive cells was automatically obtained using the ImageJ program. Ki-67 positive cells (%)=(ki-67 positive cell number/DAPI positive cell number)×100 [Calculation equation of Ki-67 positive cell number]
The calculated values were graphed using the GraphPad Prism application. […] The statistical significance of the obtained values was identified via one-way ANOVA with Dunnett's multiple comparison test. *p<0.5, **p<0.1, ***p<0.01 vs. control, #p<0.5, ##p<0.1 vs. DO3A, †p<0.5, †††p<0.01 vs. ATRA indicate presence of statistical significance.

The test system of data set [6] is SH-SY5Y. Nature of the data set: Changes in morphology of nerve cells (inverted microscope). The data set is classed as cell-based, human. Also noted: neurite elongation / change in cell morphology: dose or concentration left out as unconfirmed. As to conditions: microscope image. How it is done: For cell viability analysis, stabilized cells were planted in a 60 mm dish at a density of ×10^5 cells/dish. […] The next day, the growth medium was removed therefrom. […] Then, the cells were incubated therein for 1, 3, and 5 days, and under at 37° C. and 5% CO2 condition. Cell morphology was imaged with a Nikon inverted microscope (Nikon, ECLIPSE Ts2, Nikon Corporation, Tokyo, Japan).

Data set [7] has as its system SH-SY5Y. Kind of data set: Neurite elongation promoting effect using immunofluorescence staining. Format: cell-based, human. As to conditions: 10 μM.
Text: as §1

Structures are written as SMILES.

As to `CC1=C(/C=C/C(C)=C/C=C/C(C)=C/C(=O)O)C(C)(C)CCC1` [ATRA, all-trans retinoic acid], the “dissolution state immediately after dissolution” value in data set [1] (100 mM in 1 mL deionized water, light vortexing, initial state) is recorded as “uniformly dissolved in the solution initially”. Further, the “dissolution state after being left” value in data set [1] (100 mM in deionized water, left at room temperature for 20 minutes) is “separated from the solvent and was precipitated over time”. In data set [2], the “cell viability, dependence on concentration and time” value is “the higher the concentration of ATRA and the longer the time, the lower the cell viability”. The cytotoxicity result with SH-SY5Y [3] is “approximately 55%”. The “expression level of new neurons (color histogram)” value with SH-SY5Y [4] is “low expression level of new neurons”. In addition, in the data set with SH-SY5Y [5], the “cell proliferation (Ki-67 positive cells) versus control” value was “did not exhibit a significant difference from that of the control”.

With `O=C(O)CN1CCNCCN(CC(=O)O)CCN(CC(=O)O)CC1` [DO3A], the “neurite elongation / change in cell morphology” value in the data set with SH-SY5Y [6] (1, 3, and 5 days) is given as “neurite elongation was not observed”. Also, in the data set with SH-SY5Y [6] (5-20 μM, 1-5 days), the “apoptosis due to cytotoxicity” value is “observed at 10 μM, 5 days and at 20 μM, and 3 days”. For the same molecule, the “neurite length versus control” value in the data set with SH-SY5Y [7] (ImageJ measurement after fluorescent staining) was “did not achieve the neurite elongation as in the control”. In addition, the “neurite elongation in fluorescence image” value in the data set with SH-SY5Y [7] (1, 3, and 5 days, tubulin and doublecortin staining) was “neurite elongation was not observed”. Also, the “cell proliferation (Ki-67 positive cells) versus control” value in the data set with SH-SY5Y [5] is listed as “approximately two times larger than the control”.

These data come from patent publication US12404255B2, “Compound and pharmaceutical composition containing same for treating or preventing neural damage, neural disease, or developmental disorder through promoting proliferation, differentiation, and/or regeneration of neural cells” (ETNOVA THERAPEUTICS CORP., priority 2020, dated 2025).
